# Key:
# [1] = deoxyribose (dR) degradation test, hydroxyl radical scavenging; format: biochemical
# Protocol: Trans-UCA, cis-UCA, related imidazoles and non-imidazole compounds were tested with regard to their ability to compete with deoxyribose to scavenge hydroxyl radicals. On exposure to hydroxyl radicals deoxyribose is degraded into malondialdehyde, which reacts with thiobarbituric acid to form a pink chromogen. Powerful hydroxyl-radical scavengers will compete with deoxyribose, resulting in a reduced amount of malondialdehyde. Ten compounds, UCA, UCA analogues, alanine and uric acid (FIG. 1) were tested on their ability to scavenge hydroxyl radicals.
# Method: the deoxyribose (dR) degradation test. The test was analogous to an earlier described method. Briefly, the reactions were performed in 5 mL screw cap glass tubes in a final volume of 1.0 mL sodium phosphate buffer (50 mM; pH 7.2), containing 3.0 mM 2 deoxy-D-ribose, 0.5 mM hydrogen peroxide and one of the test compounds at graded concentrations. The reaction was started by the addition of premixed disodium EDTA and ferrous iron solution (final concentrations 0.5 mM and 0.2 mM, respectively). The mixture was left for 15 minutes at room temperature. After addition of 1.0 mL 1% thiobarbituric acid in 50 mM NaOH and 0.75 mL 2.8% trichloroacetic acid, the tubes were heated for 20 minutes in a boiling water bath. The pink color was read at 532 nm and reciprocal absorption values were plotted against the concentration of the test compound after subtraction of appropriate blanks. A series of six duplicate determinations from test compound dilutions was employed to construct a graph slope for the calculation of a rate constant value. The mean, SD, number of rate constants and the percentage of inhibition of deoxyribose degradation, calculated for each test compound, are listed. Results. All second-order rate constants for reaction with hydroxyl radicals and, in addition, the percentage inhibition of deoxyribose degradation with equimolar concentrations (3 mM) of scavenger are summarized in Table 1. Trans-UCA and cis-UCA are substantially more powerful in scavenging hydroxyl radicals (8.0 and 7.1×10^3 M^−1,s^−1, respectively), than the other 4-(5-)-substituted imidazoles, including L-histidine (2.6×10^2 M^−1,s^−1). L-histidine, the precursor of UCA, was included as a known moderate scavenger with structural similarities to UCA. L-alanine was used as a known poor scavenger. Trans-FAA was tested as a non-imidazole acrylic acid derivative, having a furan ring instead.
# FIG. 2. A determination of the second order rate constants of trans-UCA and cis-UCA with hydroxyl radicals. The rate constant was derived from the slope of the line (k=slope×kdR×[dR]×A0), where A0 is the absorbance, measured in the absence of hydroxyl radical scavenger. KdR was taken as 3.1×10^9 M^−1,s^−1, derived from pulse radiolysis studies, and [dR]=3 mM. […] The other scavengers were studied similarly.
# [2] = Fenton oxidation of UCA (Fe2+ / hydrogen peroxide, HPLC); format: physicochemical; settings: for TRANS-UROCANIC ACID LEFT OVER: trans-UCA 40 μM, hydrogen peroxide 500 μM; for YIELD of FENTON OXIDATION PRODUCTS: sum of 8 major peaks
# Protocol: Trans-UCA and cis-UCA were separated from each other and from several UCA oxidation products on a 4.6×250 mm Alltima C18 and Luna C18 reversed-phase column (Alitech, Deerfield, Ill. and Phenomenex, Torrence, Calif., resp.) with a flow of 0.8 mL/min, delivered by P-3500 HPLC-pumps (Pharmacia, Uppsala, Sweden). Samples of 20 to 200 μL were injected by a Promis II autosampler (Spark Holland, Emmen, The Netherlands) and chromatographic data were recorded on an SP 4270 integrator (Spectra Physics, San Jose, Calif.). Peak area data from samples were only processed under identical HPLC circumstances. A UV-detector (Applied Biosystems, model 759A, Foster City, Calif.) was set for 226 nm detection. Isocratic elution was performed with 10 mM ammonium formate buffer, containing 0.2–0.8 mM tetrabutylammonium(TBA)formate and 1% acetonitrile (pH 7.2). Collected fractions were acidified with formic acid up to a final concentration of 100 mM and passed through C18 could phase extraction columns (J T Baker, Deventer, The Netherlands) in order to remove TBA.
# […] In addition, two hydroxyl-radical-generating systems with copper ions (Cu^2+) were used, consisting of 50 μM Cu^2+ with either 500 μM hydrogen peroxide or 5 mM ascorbic acid.
# In the next series of experiments we studied the Fenton oxidation of UCA, representing another natural oxidation process. Trans-UCA and cis-UCA isomers were Fenton oxidized by ferorus ions (Fe^2+) and hydrogen peroxide at physiological concentrations. The initial hydrogen peroxide concentration was 500 μM and the ferrous ion concentration was varied from 0 to 500 μM. In all Fenton oxidation reactions the degree of UCA-isomer breakdown was calculated from their reduced peak areas. The oxidation reaction must have been completed within 2 minutes for all reaction conditions, because no further breakdown was observed after prolonged incubation.
# When the Fenton reaction was performed in water instead of phosphate buffer, the oxidative breakdown of trans-UCA was enhanced irrespective of the UCA concentration. The turbidity seen in reactions performed in phoshate buffer (10 mM) with high Fe^2+ concentration (>100 μM) was probably due to the formation of insoluble, iron phosphate, thereby reducing the free availability of Fe^2+. Table 3 summarizes the difference between water and phosphate medium for trans-UCA at an initial concentration of 40 μM with respect to its breakdown and the formation of Fenton-oxidation products. Similarly to the photo-oxidation experiments, the peak areas of the 8 major oxidation products were summed. […] A close resemblance was observed between the chromatographic patterns of UCA Fenton oxidation products (not shown) and those of UCA photo-oxidation products. Three of them has been identified (vide infra).
# In another series of experiments we studied the Fenton oxidation of UCA, representing another natural oxidation process. The initial hydrogen peroxide concentration was 500 μM in all experiments and the ferrous ion concentration was varied from 0 to 400 μM. Four sets of conditions were compared: […] in phosphate buffer pH 7.2, 2. Fe^2+ in phosphate buffer plus EDTA, 3. Fe^2− without buffer with a initial pH of 5.5–5.3 and 4. Cu^2+ in phosphate buffer plus ascorbate. The degree of breakdown was similar for both UCA isomers.
smiles,measurement,setting,value
"O=C(O)/C=C/c1cnc[nH]1 [trans-Urocanic acid, Trans-urocanic acid]",INHIBITION of DEOXYRIBOSE DEGRADATION,[1]; [SCAVENGER] = [DEOXYRIBOSE] = 3 Mm,67%
same,SECOND ORDER RATE CONSTANT for reaction with hydroxyl radicals,"[1]; mean of n slopes, sodium phosphate buffer pH 7.2",8e+09 M⁻¹ s⁻¹
same,second order rate constant in the particular set of FIG. 2,"[1]; single set of FIG. 2, kdR 3.1×10^9, [dR]=3 mM","8.49 ×10^9 M^−1,s^−1"
same,TRANS-UROCANIC ACID LEFT OVER,"[2]; Fe2+ 0 μM, in phosphate buffer 10 mM pH 7.2",100 (±1) %
same,YIELD of FENTON OXIDATION PRODUCTS,"[2]; Fe2+ 0 μM, in phosphate buffer",<10 A.U.
same,YIELD of FENTON OXIDATION PRODUCTS,"[2]; Fe2+ 0 μM, in water",<10 A.U.
same,TRANS-UROCANIC ACID LEFT OVER,"[2]; Fe2+ 0 μM, in water",100 (±3) %
same,TRANS-UROCANIC ACID LEFT OVER,"[2]; Fe2+ 50 μM, in phosphate buffer 10 mM pH 7.2",97 (±1) %
same,YIELD of FENTON OXIDATION PRODUCTS,"[2]; Fe2+ 50 μM, in phosphate buffer",<10 A.U.
same,YIELD of FENTON OXIDATION PRODUCTS,"[2]; Fe2+ 50 μM, in water",194 (±34) A.U.
same,TRANS-UROCANIC ACID LEFT OVER,"[2]; Fe2+ 50 μM, in water",77 (±11) %
same,TRANS-UROCANIC ACID LEFT OVER,"[2]; Fe2+ 100 μM, in phosphate buffer 10 mM pH 7.2",94 (±5) %
same,YIELD of FENTON OXIDATION PRODUCTS,"[2]; Fe2+ 100 μM, in phosphate buffer",27 (±5) A.U.
same,YIELD of FENTON OXIDATION PRODUCTS,"[2]; Fe2+ 100 μM, in water",272 (±6) A.U.
same,TRANS-UROCANIC ACID LEFT OVER,"[2]; Fe2+ 100 μM, in water",48 (±7) %
same,TRANS-UROCANIC ACID LEFT OVER,"[2]; Fe2+ 250 μM, in phosphate buffer 10 mM pH 7.2",83 (±3) %
same,YIELD of FENTON OXIDATION PRODUCTS,"[2]; Fe2+ 250 μM, in phosphate buffer",36 (±3) A.U.
same,YIELD of FENTON OXIDATION PRODUCTS,"[2]; Fe2+ 250 μM, in water",423 (±76) A.U.
same,TRANS-UROCANIC ACID LEFT OVER,"[2]; Fe2+ 250 μM, in water",19 (±8) %
same,TRANS-UROCANIC ACID LEFT OVER,"[2]; Fe2+ 500 μM, in phosphate buffer 10 mM pH 7.2",78 (±12) %
same,YIELD of FENTON OXIDATION PRODUCTS,"[2]; Fe2+ 500 μM, in phosphate buffer",49 (±9) A.U.
same,YIELD of FENTON OXIDATION PRODUCTS,"[2]; Fe2+ 500 μM, in water",511 (±35) A.U.
same,TRANS-UROCANIC ACID LEFT OVER,"[2]; Fe2+ 500 μM, in water",<4%
same,broken down by the unbuffered Fenton oxidation system,"[2]; initial UCA concentration 250 μM, unbuffered",78%

# — patent US7056938B1, “Method for scavenging radicals with urocanic acid, derivatives and analogues” (Academisch Ziekenhuis Bij De Univ., priority 1999, dated 2006)
